Like-named read-outs stand apart in the source and are kept apart here.
What was measured:
clinical [1] = settings: human, plasma, po
Protocol: A 2-part study was conducted in subjects with solid tumors (“Study 2”). […] The dose levels increased to 75 mg/m^2, 150 mg/m^2, 225 mg/m^2, 300 mg/m^2, 375 mg/m^2, and 400 mg/m^2. In the second part of this study, half of the group starting at a selected dose from stage 1, was given over two consecutive days every three weeks. A total of 15 (n=40) subjects enrolled in this study.
All subject PK data within the dataset were analyzed using Phoenix 8.0. […] Individual time points for the terminal slope were automatically selected by the software, and linear up—log down interpolation calculation method was used for the analysis. Individual BLQ samples were set to 0.00 ng/ml for noncompartmental analysis unless the PK sample occurred between two PK samples above the limit of quantification, in which case the PK sample was set to missing. For the calculation of summary statistics and mean concentration figures, all BLQ samples were set to 0.00 ng/ml.

[2] = parameters: Dose Normalized AUC: unit not given beside the values; settings: cited from earlier work
clinical [3] = assay: clinical
[4] = 75 mg/m^2 over 28 days, monotherapy schedule for mHRPC; cited from earlier work
[5] = IV 20 mg/m^2, infusion 1 h, n = 1
[6] = IV 20 mg/m^2, infusion 24 h, n = 1
[7] = IV 30 mg/m^2, infusion 1.58 (0.80) h, n = 2
[8] = IV 40 mg/m^2, infusion 1 h, n = 1
[9] = IV 40 mg/m^2, infusion 24 h, n = 3
[10] = IV 55 mg/m^2, infusion 1.68 (0.75) h, n = 3
[11] = IV 55 mg/m^2, infusion 24 h, n = 4
[12] = IV 70 mg/m^2, infusion 1.37 (0.53) h, n = 2
[13] = IV 70 mg/m^2, infusion 24 h, n = 3
[14] = IV 85 mg/m^2, infusion 1.61 (0.81) h, n = 6
[15] = IV 90 mg/m^2, infusion 24 h, n = 5
[16] = IV 100 mg/m^2, infusion 2.03 (0.09) h, n = 4
[17] = IV 115 mg/m^2, infusion 1.84 (0.28) h, n = 4
[18] = male, human, in vivo, po, 75 mg/m2
[19] = mean oral (75 mg/m^2) as % of mean IV (60 mg/m^2)

CC(=O)O[C@@]12CO[C@@H]1C[C@H](O)[C@@]1(C)C(=O)[C@H](O)C3=C(C)[C@@H](OC(=O)[C@H](O)[C@@H](NC(=O)OC(C)(C)C)c4ccccc4)C[C@@](O)([C@@H](OC(=O)c4ccccc4)[C@H]21)C3(C)C [docetaxel, (2aR,4S,4aS,6R,9S,11S,12S,12aR,12b S)-12b-acetoxy-9-(((2R,3S)-3-((tert-butoxycarbonyl)amino)-2-hydroxy-3-phenylpropanoyl)oxy)-4,6,11-trihydroxy-4a,8,13,13-tetramethyl-5-oxo-2a,3,4,4a,5,6,9,10,11,12,12a, 12b-dodecahydro-1H-7,11-methanocyclodeca[3,4]benzo[1,2-b]oxet-12-yl benzoate]
AUC(0-inf) (clinical [1]; 75 mg/m2, AUCINF—obs, oral 75 mg/m^2 with Compound A, Mean, N=3): 815 ng·h/mL | Cmax (clinical [1]; 75 mg/m2, Cmax, oral 75 mg/m^2 with Compound A, Mean, N=3): 172 ng/mL | half-life (clinical [1]; 75 mg/m2, Reported half-life, oral 75 mg/m^2, individual values, sampling to 168 h, LLOQ 0.2 ng/mL): 51.4 h | half-life (clinical [1]; 75 mg/m2, t1/2, oral 75 mg/m^2 with Compound A, Mean, N=3): 53.1 h | half-life (clinical [1]; 75 mg/m2, t1/2, oral 75 mg/m^2 with Compound A, individual subjects): 51.4 h | half-life (clinical [1]; 75 mg/m2, t1/2, oral 75 mg/m^2 with Compound A, mean): 53.1 h | concentration at 0.25 hr (clinical [1]; 75 mg/m^2, Analyte Concentration, oral 75 mg/m^2, cohort 2, time 0.250 hr, individual subjects): 28 ng/mL | Tmax (clinical [1]; 150 mg/m2): 2.67 h | AUC(0-t) (clinical [1]; 150 mg/m2, AUC0-12, oral 150 mg/m^2 with Compound A, individual subjects): 446 ng·h/mL | Cmax (clinical [1]; 150 mg/m2, Cmax, oral 150 mg/m^2 with Compound A, individual subjects): 112 to 136 ng/mL | half-life (clinical [1]; 150 mg/m2, Reported half-life, oral 150 mg/m^2, individual values, sampling to 168 h, LLOQ 0.2 ng/mL): 72 h | half-life (clinical [1]; 150 mg/m2, t1/2, oral 150 mg/m^2 with Compound A, individual subjects): 72 h | Tmax (clinical [1]; 225 mg/m2): 0.5 h | AUC(0-t) (clinical [1]; 225 mg/m2, AUC0-24, oral 225 mg/m^2 with Compound A, Mean, N=3): 792 ng·h/mL | AUC(0-t) (clinical [1]; 225 mg/m2, AUC0-24, oral 225 mg/m^2 with Compound A, individual subjects): 986 ng·h/mL | AUC(0-t) (clinical [1]; 225 mg/m2, AUC0-48, oral 225 mg/m^2 with Compound A, Mean, N=3): 914 ng·h/mL | AUC(0-inf) (clinical [1]; 225 mg/m2, AUCINF—obs, oral 225 mg/m^2 with Compound A, Mean, N=3): 1190 ng·h/mL | half-life (clinical [1]; 225 mg/m2, t1/2, oral 225 mg/m^2 with Compound A, Mean, N=3): 56 h | half-life (clinical [1]; 225 mg/m2, t1/2, oral 225 mg/m^2 with Compound A, individual subjects): 67.3 h | concentration at 1 hr (clinical [1]; 225 mg/m^2, Analyte Concentration, oral 225 mg/m^2, cohort 4, time 1.00 hr, individual subjects): 55.6 ng/mL | concentration at 2 hr (clinical [1]; 225 mg/m^2, Analyte Concentration, oral 225 mg/m^2, cohort 4, time 2.00 hr, individual subjects): 118 ng/mL | concentration at 4 hr (clinical [1]; 225 mg/m^2, Analyte Concentration, oral 225 mg/m^2, cohort 4, time 4.00 hr, individual subjects): 28 ng/mL | AUC0-24 [2, 5]: 960 ng·h/mL | Dose Normalized AUC [2, 5]: 48 | t1/2 γ [2, 5]: 2.2 h | AUC0-24 [2, 6]: 920 ng·h/mL | Dose Normalized AUC [2, 6]: 46 | AUC0-24 [2, 7]: 1260 ng·h/mL | Cmax [2, 7]: 640 (450) ng/ml | Dose Normalized AUC [2, 7]: 42 | t1/2 γ [2, 7]: 4.6 h | AUC0-24 [2, 8]: 670 ng·h/mL | Cmax [2, 8]: 420 ng/mL | Dose Normalized AUC [2, 8]: 16.75 | t1/2 γ [2, 8]: 3.8 h | AUC0-24 [2, 9]: 2190 ng·h/mL | Dose Normalized AUC [2, 9]: 54.75 | AUC0-24 [2, 10]: 1420 ng·h/mL | Cmax [2, 10]: 820 (380) ng/ml | Dose Normalized AUC [2, 10]: 25.82 | t1/2 γ [2, 10]: 2 h | AUC0-24 [2, 11]: 2560 ng·h/mL | Dose Normalized AUC [2, 11]: 46.55 | AUC0-24 [2, 12]: 2790 ng·h/mL | Cmax [2, 12]: 1910 (320) ng/ml | Dose Normalized AUC [2, 12]: 39.86 | t1/2 γ [2, 12]: 2.5 h | AUC0-24 [2, 13]: 3470 ng·h/mL | Dose Normalized AUC [2, 13]: 49.57 | AUC0-24 [2, 14]: 4100 ng·h/mL | Cmax [2, 14]: 2420 (920) ng/ml | Dose Normalized AUC [2, 14]: 48.24 | t1/2 γ [2, 14]: 13.6 h | AUC0-24 [2, 15]: 7810 ng·h/mL | Dose Normalized AUC [2, 15]: 86.78 | AUC0-24 [2, 16]: 5930 ng·h/mL | Cmax [2, 16]: 2410 (250) ng/ml | Dose Normalized AUC [2, 16]: 59.30 | t1/2 γ [2, 16]: 18.5 h | AUC0-24 [2, 17]: 5190 ng·h/mL | Cmax [2, 17]: 2680 (930) ng/ml | Dose Normalized AUC [2, 17]: 45.13 | t1/2 γ [2, 17]: 9.6 h | Tmax Mean % (clinical [3]; male, human, in vivo): 207.55% | Average Time above Target (0 to last time point measured above 4 ng/ml) (clinical [3]; male, human, in vivo, iv): 40.9 h | Dose Normalized AUC (clinical [3]; male, human, in vivo, iv): 27.17 ng·h/mL | AUC(0-t) (clinical [3]; male, human, in vivo, iv, 60 mg/m2, AUC0-24): 1350 to 1970 ng·h/mL | AUC(0-inf) (clinical [3]; male, human, in vivo, iv, 60 mg/m2, AUC0-inf): 1970 ng·h/mL | AUC(0-t) (clinical [3]; male, human, in vivo, iv, 60 mg/m2, AUC0-t): 1890 ng·h/mL | Cmax (clinical [3]; male, human, in vivo, iv, 60 mg/m2, Cmax): 1020 to 1570 ng/mL | Tmax (clinical [3]; male, human, in vivo, iv, 60 mg/m2, Tmax): 0.88 h | half-life (clinical [3]; male, human, in vivo, iv, Reported half-life): 17.4 h | Average Time above Target (0 to last time point measured above 4 ng/ml) (clinical [3]; male, human, in vivo, po): 20.5 h | Dose Normalized AUC (clinical [3]; male, human, in vivo, po): 23.33 ng·h/mL | AUC(0-inf) (clinical [3]; [18]): 476 ng·h/mL | half-life (clinical [3]; [18]): 21.3 h | AUC(0-t) (clinical [3]; male, human, in vivo, po, 75 mg/m2, AUC0-24): 313 to 336 ng·h/mL | AUC(0-inf) (clinical [3]; male, human, in vivo, po, 75 mg/m2, AUC0-inf): 478 ng·h/mL | AUC(0-t) (clinical [3]; male, human, in vivo, po, 75 mg/m2, AUC0-t): 395 ng·h/mL | half-life (clinical [3]; male, human, in vivo, po, 75 mg/m2, Reported half-life): 16.4 h | Tmax (clinical [3]; male, human, in vivo, po, 75 mg/m2, Tmax): 1.83 h | Cmax Mean % (clinical [3]; [19]): 7.87% | t1/2 Mean % (clinical [3]; [19]): 104.60% | target AUC [4]: 3410 ± 980 ng·h/mL

— US10849893B2 (Athenex HK Innovative Limited, priority 2018, dated 2020)
